Key:
Estrogen receptor = target: T1, Estrogen receptor (Homo sapiens, UniProt P03372)
T1 sequence (P03372 whole entry): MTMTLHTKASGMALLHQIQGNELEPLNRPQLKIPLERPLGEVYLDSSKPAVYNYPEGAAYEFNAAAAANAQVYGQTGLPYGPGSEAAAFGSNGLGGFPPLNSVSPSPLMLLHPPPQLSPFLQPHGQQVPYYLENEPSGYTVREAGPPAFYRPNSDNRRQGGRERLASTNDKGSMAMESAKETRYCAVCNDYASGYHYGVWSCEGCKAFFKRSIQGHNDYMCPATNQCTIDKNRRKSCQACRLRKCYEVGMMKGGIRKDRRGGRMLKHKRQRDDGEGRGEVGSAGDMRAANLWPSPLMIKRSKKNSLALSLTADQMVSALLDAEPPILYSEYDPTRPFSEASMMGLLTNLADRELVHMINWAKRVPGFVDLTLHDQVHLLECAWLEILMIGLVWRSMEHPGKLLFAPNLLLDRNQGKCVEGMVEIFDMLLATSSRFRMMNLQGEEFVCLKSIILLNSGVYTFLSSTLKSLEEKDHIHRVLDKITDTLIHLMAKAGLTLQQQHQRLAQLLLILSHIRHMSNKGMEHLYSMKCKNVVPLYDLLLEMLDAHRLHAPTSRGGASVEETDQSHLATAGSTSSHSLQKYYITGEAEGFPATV
Description: Displacement of [3H]E2 from human recombinant ERalpha LBD by SPA

Estrogen receptor beta = Estrogen receptor beta (Homo sapiens, UniProt Q92731)
Description: Displacement of [3H]E2 from human recombinant ERbeta LBD by SPA

[1] = target: T2, Estrogen receptor (Homo sapiens) (UniProt P03372); details: Huh-7, filed as antagonist
T2 sequence (whole entry): T1 sequence (P03372 whole entry)
Description: Antagonist activity on ERalpha-mediated transcription of ERE-luciferase reporter gene in human Huh7 cells relative to estradiol

Chain of Estrogen receptor beta (Q92731 whole entry): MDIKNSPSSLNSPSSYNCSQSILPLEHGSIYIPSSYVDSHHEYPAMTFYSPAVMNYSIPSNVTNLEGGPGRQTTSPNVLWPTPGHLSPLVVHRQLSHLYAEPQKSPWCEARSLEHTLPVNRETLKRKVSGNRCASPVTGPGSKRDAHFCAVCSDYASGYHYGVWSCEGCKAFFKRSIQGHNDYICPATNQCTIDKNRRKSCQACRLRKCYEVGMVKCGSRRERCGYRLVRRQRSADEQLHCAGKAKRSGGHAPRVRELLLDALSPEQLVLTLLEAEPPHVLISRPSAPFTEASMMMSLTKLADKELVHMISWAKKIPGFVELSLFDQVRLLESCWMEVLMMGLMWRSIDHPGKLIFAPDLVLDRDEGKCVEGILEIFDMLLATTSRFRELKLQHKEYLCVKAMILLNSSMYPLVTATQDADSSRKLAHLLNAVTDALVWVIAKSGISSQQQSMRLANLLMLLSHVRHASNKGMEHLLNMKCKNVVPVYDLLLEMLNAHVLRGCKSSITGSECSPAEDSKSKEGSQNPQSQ

CCCc1c(O)cc(O)c2c1O[C@H](c1ccc(O)cc1)CC2=O
IC50 (Estrogen receptor): 155 nM | IC50 (Estrogen receptor beta): 29 nM

CC(C)(C)Cc1c(O)cc(O)c2c1O[C@H](c1ccc(O)cc1)CC2=O
IC50 (Estrogen receptor): 216 nM | IC50 (Estrogen receptor beta): 141 nM

CCCCCc1c(O)cc(O)c2c1O[C@H](c1ccc(O)cc1)CC2=O
IC50 (Estrogen receptor): 383 nM | IC50 (Estrogen receptor beta): 97 nM

CC(C)Cc1c(O)cc(O)c2c1O[C@H](c1ccc(O)cc1)CC2=O
IC50 (Estrogen receptor): 80 nM | IC50 (Estrogen receptor beta): 37 nM

CCCCCCCCCc1c(O)cc(O)c2c1O[C@H](c1ccc(O)cc1)CC2=O
IC50 (Estrogen receptor): 436 nM | IC50 (Estrogen receptor beta): 113 nM | Antagonist activity [1]: Partial antagonist

O=C1C[C@@H](c2ccc(O)cc2)Oc2c(Cc3ccccc3)c(O)cc(O)c21
IC50 (Estrogen receptor): 503 nM | IC50 (Estrogen receptor beta): 244 nM

CC(C)CCc1c(O)cc(O)c2c1O[C@H](c1ccc(O)cc1)CC2=O
IC50 (Estrogen receptor): 140 nM | IC50 (Estrogen receptor beta): 59 nM

CCCCCCCc1c(O)cc(O)c2c1O[C@H](c1ccc(O)cc1)CC2=O
IC50 (Estrogen receptor): 392 nM | IC50 (Estrogen receptor beta): 69 nM | Antagonist activity [1]: Partial antagonist

Cc1c(O)cc(O)c2c1O[C@H](c1ccc(O)cc1)CC2=O
IC50 (Estrogen receptor): 5250 nM | IC50 (Estrogen receptor beta): 863 nM

O=C1C[C@@H](c2ccc(O)cc2)Oc2cc(O)cc(O)c21 [NARINGENIN]
IC50 (Estrogen receptor): 75300 nM | IC50 (Estrogen receptor beta): 13500 nM

CCCCCCCCCCCc1c(O)cc(O)c2c1O[C@H](c1ccc(O)cc1)CC2=O
IC50 (Estrogen receptor): 1020 nM | IC50 (Estrogen receptor beta): 421 nM | Antagonist activity [1]: Partial antagonist
